In data set [1] the target is Recombinant human c-Met protein (Homo sapiens (Human), UniProt P08581). In words: c-Met receptor tyrosine kinase activity assay (NADH read-out). It counts as biochemical. Particulars: ATP 30 μM, c-Met 30 nM. As for the experimental part:
c-Met Receptor Tyrosine Kinase Activity Assay (NADH Read-Out):
Recombinant human c-Met protein (Invitrogen, Carlsbad, Calif., USA) is used. As substrate for the kinase reaction the peptide KKKSPGEYVNIEFG (JPT, Germany) is used. For the assay, 1 μL of a 51-fold concentrated solution of the test compound in DMSO is pipetted into a white 384-well microtiter plate (Greiner Bio-One, Frickenhausen, Germany). 25 μL of a solution of c-Met (final concentration 30 nM) and pyruvate kinase/lactate dehydrogenase (Roche Diagnostics, Mannheim, Germany; final concentration 8 mg/L) in assay buffer [3-(N-morpholino)propanesulfonic acid (MOPS), 50 mM, pH 7; MgCl2, 10 mM; bovine serum albumin (BSA), 0.01%; Triton X 100, 0.01%; DTT, 2 mM] are added, and the mixture is incubated for 5 min at room temperature. Then, the kinase reaction is started by the addition of 25 μL of a solution of adenosine triphosphate (ATP, final concentration 30 μM), substrate (final concentration 100 μM), nicotinamide adenine dinucleo-tide (NADH, final concentration 50 μM) and dithiothreitol (DTT, final concentration 2 mM) in assay buffer, and the resulting mixture is incubated for a reaction time of 100 min at 32° C.
Subsequently, the amount of phosphorylated substrate is evaluated by measurement of the decrease of NADH fluorescence. Therefore, the fluorescence emissions at 465 nm after excitation at 340 nm is measured in a fluorescence reader, e.g. Tecan Ultra (Tecan, Männedorf, Switzerland). The data are normalised (enzyme reaction without inhibitor=0% inhibition; all other assay components but no enzyme=100% inhibition).

Data set [2] deals with recombinant kinase domain of the human c-Met (amino acids 960-1390) (Homo sapiens (Human), UniProt P08581). In words: c-Met receptor tyrosine kinase homogeneous time-resolved fluorescence assay (alternative format). It is filed as biochemical. Conditions: HTRF format; ATP 10 μM. The text has this:
c-Met Receptor Tyrosine Kinase Homogeneous Time-Resolved Fluorescence Assay (Alternative Format):
The N-terminally His6-tagged recombinant kinase domain of the human c-Met (amino acids 960-1390), expressed in insect cells (SF21) and purified by Ni-NTA affinity chromatography and consecutive size exclusion chromatography (Superdex 200), is used. Alternatively, commercially available c-Met (Millipore) can be used. As substrate for the kinase reaction, the biotinylated poly-Glu, Tyr (4:1) copolymer (#61GTOBLC, Cis Biointernational, Marcoule, France) is used.
For the assay, […] of a 100-fold concentrated solution of the test compound in DMSO is pipetted into a black low-volume 384-well microtiter plate (Greiner Bio-One, Frickenhausen, Germany). 2 μL of a solution of c-Met in assay buffer [25 mM Hepes/NaOH, pH 7.5; 5 mM MgCl2; 5 mM MnCl2; 2 mM dithiothreitol; 0.1% (v/v) Tween 20 (Sigma); 0.1% (w/v) bovine serum albumin] are added, and the mixture is incubated for 15 min at 22° C. to allow pre-binding of the test compound to the enzyme before the start of the kinase reaction. Then, the kinase reaction is started by the addition of 3 μL of a solution of adenosine triphosphate (ATP, 16.7 μM; final concentration in the 5 μL assay volume is 10 μM) and substrate (2.27 μg/mL, final concentration in the 5 μL assay volume is 1.36 μg/mL ˜30 nM) in assay buffer, and the resulting mixture is incubated for a reaction time of 30 min at 22° C. The concentration of c-Met in the assay is adjusted depending on the activity of the enzyme lot and is appropriately chosen to have the assay in the linear range; typical enzyme concentrations are in the range of about 0.03 nM (final concentration in the 5 μL assay volume). The reaction is stopped by the addition of 5 μL of a solution of HTRF detection reagents [40 nM streptavidine-X Lent and 2.4 nM PT66-Eu-chelate, an europium-chelate labelled anti-phosphotyrosine antibody (Perkin-Elmer)] in an aqueous EDTA solution [100 mM EDTA, 0.2% (w/v) bovine serum albumin in 50 mM HEPES/NaOH, pH 7.5].
The resulting mixture is incubated for 1 h at 22° C. to allow the binding of the biotinylated phosphorylated peptide to the streptavidine-XLent and the PT66-Eu-chelate. Subsequently, the amount of phosphorylated substrate is evaluated by measurement of the resonance energy transfer from the PT66-Eu-chelate to the streptavidine-XLent. Therefore, the fluorescence emissions at 620 nm and 665 nm after excitation at 350 nm are measured in an HTRF reader, e.g. Rubystar (BMG Lab-technologies, Offenburg, Germany) or Viewlux (Perkin-Elmer). The ratio of the emissions at 665 nm and at […] is taken as the measure for the amount of phosphorylated substrate. The data are normalised (enzyme reaction without inhibitor=0% inhibition; all other assay components but no enzyme=100% inhibition).
In general terms: In TR-FRET formats the signal depends on donor and acceptor labels being close together.

The nature of data set [3]: Caco-2 permeability assay. Particulars: human, apical to basolateral, 2 h at 37° C., Table 4, read-out: Caco-2 permeability PappA-B. It counts as in vitro ADME. An excerpt:
Caco-2 Permeability Assay:
The in vitro permeation of a test compound across a Caco-2 cell monolayer is a well-established assay system to predict the permeability from the gastro-intestinal tract [cf. P. Artursson and J. Karlsson: Correlation between oral drug absorption in humans and apparent drug permeability coefficients in human intestinal epithelial (Caco-2) cells, Biochem. Biophys. 175 (3), 880-885 (1991)]. The permeability of the compounds of the present invention in such Caco-2 cells was determined as described below:
Human caco-2 cells (ACC No. 169, DSMZ, German Collection of Microorganisms and Cell Cultures, Braunschweig, Germany) are seeded on 24-well insert plates and are allowed to grow for 14-16 days. For permeability studies, the test compounds are dissolved in DMSO and diluted to the final test concentration of 2 μM with transport buffer [Hanks' Buffered Salt Solution, Gibco/Invitrogen, further supplemented with glucose (final concentration 19.9 mM) and HEPES (final concentration 9.8 mM)]. For determination of the apical to basolateral permeability (PappA-B), the test compound solution is added to the apical side of the cell monolayer and transport buffer to the basolateral side of the monolayer; for determination of the basolateral to apical permeability (PappB-A), the test compound solution is added to the basolateral side of the cell monolayer and transport buffer to the apical side of the monolayer. Samples are taken from the donor compartment at the beginning of the experiment to confirm mass balance. After an incubation of 2 h at 37° C., samples are taken from both compartments. Samples are analyzed by LC-MS/MS, and the apparent permeability coefficients are calculated. Lucifer Yellow permeability is assayed for each cell monolayer to ensure cell monolayer integrity, and the permeability of Atenolol (low permeability marker) and Sulfasalazine (marker for active excretion) is determined for each batch as quality control.
On the technique in general: Caco-2 cells form a polarised layer with tight junctions and transporters.

What is called IC50 is the concentration that gives 50% inhibition.

Chain of Recombinant human c-Met protein (P08581 25-1390): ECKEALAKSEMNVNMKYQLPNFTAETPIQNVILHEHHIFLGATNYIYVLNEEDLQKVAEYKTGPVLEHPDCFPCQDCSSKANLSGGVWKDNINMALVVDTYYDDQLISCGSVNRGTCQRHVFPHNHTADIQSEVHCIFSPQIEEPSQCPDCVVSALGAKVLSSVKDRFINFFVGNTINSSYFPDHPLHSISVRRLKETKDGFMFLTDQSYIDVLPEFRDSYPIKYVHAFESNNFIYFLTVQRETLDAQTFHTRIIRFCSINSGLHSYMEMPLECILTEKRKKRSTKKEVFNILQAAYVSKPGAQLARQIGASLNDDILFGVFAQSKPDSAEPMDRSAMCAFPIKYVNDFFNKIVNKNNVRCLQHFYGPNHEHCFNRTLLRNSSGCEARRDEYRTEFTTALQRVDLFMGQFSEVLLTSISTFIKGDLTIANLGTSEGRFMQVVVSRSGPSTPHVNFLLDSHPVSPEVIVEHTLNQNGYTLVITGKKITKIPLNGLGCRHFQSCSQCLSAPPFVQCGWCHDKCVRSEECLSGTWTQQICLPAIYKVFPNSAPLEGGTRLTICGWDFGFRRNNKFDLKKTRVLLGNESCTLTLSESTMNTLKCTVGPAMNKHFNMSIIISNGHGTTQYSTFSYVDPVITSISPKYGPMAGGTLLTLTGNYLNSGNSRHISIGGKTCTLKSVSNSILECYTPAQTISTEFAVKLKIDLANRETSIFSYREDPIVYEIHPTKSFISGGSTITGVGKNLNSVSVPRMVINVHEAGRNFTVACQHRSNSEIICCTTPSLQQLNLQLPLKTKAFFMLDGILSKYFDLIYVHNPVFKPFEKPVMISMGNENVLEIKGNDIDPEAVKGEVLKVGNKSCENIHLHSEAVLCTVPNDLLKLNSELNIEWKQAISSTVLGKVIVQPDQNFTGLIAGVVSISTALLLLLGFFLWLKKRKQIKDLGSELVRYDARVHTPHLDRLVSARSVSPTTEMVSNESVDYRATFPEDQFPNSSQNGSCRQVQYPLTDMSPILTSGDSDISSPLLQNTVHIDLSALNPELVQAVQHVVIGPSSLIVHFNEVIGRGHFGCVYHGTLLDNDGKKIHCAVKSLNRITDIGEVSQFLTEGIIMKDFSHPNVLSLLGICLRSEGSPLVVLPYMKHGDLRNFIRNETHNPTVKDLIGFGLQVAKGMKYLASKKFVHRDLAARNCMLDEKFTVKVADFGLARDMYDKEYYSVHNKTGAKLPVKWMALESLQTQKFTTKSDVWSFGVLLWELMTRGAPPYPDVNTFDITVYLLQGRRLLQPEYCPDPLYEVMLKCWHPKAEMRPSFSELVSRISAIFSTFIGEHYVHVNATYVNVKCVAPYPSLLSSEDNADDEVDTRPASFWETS
Chain of recombinant kinase domain of the human c-Met (amino acids 960-1390) (P08581 960-1390): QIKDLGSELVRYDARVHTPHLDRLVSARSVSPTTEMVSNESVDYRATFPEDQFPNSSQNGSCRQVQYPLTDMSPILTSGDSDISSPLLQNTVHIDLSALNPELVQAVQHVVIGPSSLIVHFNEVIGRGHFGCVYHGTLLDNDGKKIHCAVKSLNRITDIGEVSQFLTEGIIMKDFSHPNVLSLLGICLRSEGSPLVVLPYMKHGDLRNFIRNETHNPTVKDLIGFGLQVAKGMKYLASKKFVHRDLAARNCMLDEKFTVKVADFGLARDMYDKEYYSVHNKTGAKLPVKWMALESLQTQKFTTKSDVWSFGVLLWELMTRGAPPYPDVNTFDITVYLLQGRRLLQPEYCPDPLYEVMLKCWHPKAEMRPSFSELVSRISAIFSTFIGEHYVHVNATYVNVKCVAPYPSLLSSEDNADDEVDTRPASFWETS

Turning to `CCC(F)(F)C1=C(C#N)C(c2ccc3[nH]nc(C)c3c2)C(C#N)=C(C)N1` (racemic) [Example 30, rac-2-(1,1-Difluoropropyl)-6-methyl-4-(3-methyl-1H-indazol-5-yl)-1,4-dihydropyridine-3,5-dicarbonitrile], the concentration for half-maximal inhibition (IC50) in data set [1] was determined as 21 nM; in data set [2], 3 nM. Further, in data set [3], the Papp at 2 h, 2 μM turned out to be 22 ×10⁻⁶ cm/s.
Consider `CC1=C(C#N)C(c2ccc3[nH]nc(C)c3c2)C(C#N)=C(C(F)F)N1` (single isomer, unassigned) [Example 2, 2-(Difluoromethyl)-6-methyl-4-(3-methyl-1H-indazol-5-yl)-1,4-dihydropyridine-3,5-dicarbonitrile], for which the 50% inhibitory concentration (IC50) in data set [1] worked out at 6 nM; in data set [2] it was 2 nM.
Consider `N#CC1=C(C(F)F)NC(C(F)F)=C(C#N)C1c1ccc2[nH]ncc2c1` [Example 24, 2,6-Bis(difluoromethyl)-4-(1H-indazol-5-yl)-1,4-dihydropyridine-3,5-dicarbonitrile], for which the IC50 in data set [1] turned out to be 28 nM. Moreover, the Papp at 2 h, 2 μM in data set [3] was determined as 20.2 ×10⁻⁶ cm/s.

Values taken from patent publication US9422263B2, “Fluoro-substituted 3,5-dicyano-4-(1H-indazol-5-yl)-2,6-dimethyl-1,4-dihydropyridine derivatives and methods of use thereof” (BAYER PHARMA AKTIENGESELLSCHAFT, priority 2009, dated 2016).
